This note sets out measurements from patent US12202828B2, “Bicyclic heterocycle compounds and their uses in therapy” (ASTEX THERAPEUTICS LIMITED, priority 2013, dated 2025).

Each structure is given as a SMILES string. “And” between values parts separate entries of the source, which are not always exact repeats. Equal entries are not always repeated. Structures can show the parent of a compound that is named as a salt. Where two headings read alike, the source gives them in different places.

Broadly, the IC50 is the point on the concentration scale where inhibition reaches its midpoint.

Data set [1] deals with EVSA-T (human breast carcinoma). Description: Anti-proliferative activity, Alamar Blue assay, EVSA-T. Format: cell-based. The note with it: 72 hours compound, read-out: EVSA-T prolif. The protocol:
(§1) The method is based on the ability of viable cells to reduce resazurin to its fluorescent product resorufin. For each proliferation assay cells are plated onto 96 well plates and allowed to recover for 16 hours prior to the addition of inhibitor compounds (in 0.1% DMSO v/v) for a further 72 hours.
(§2) The anti-proliferative activities of compounds of the invention can be determined by measuring the ability of the compounds to inhibit growth in 3 cancer cell lines: • EVSA-T (human breast carcinoma) DSMZ cat. no.
A general note: Alamar Blue is a resazurin reagent that responds to reducing activity.

For data set [2], the target named is T1, XIAP-Caspase-9 in HEK293-XIAP-Caspase-9 cells (Homo sapiens, UniProt P98170).
T1 construct: FLAG; expressed in transfected cells
Description: HEK293-XIAP-Caspase-9 immunoprecipitation (IP) MSD assay. Format: cell-based. The conditions noted are these: compound 2 h at 37° C.; read-out: HEK293-X-C9 IP. As to the method:
Stable HEK293-XIAP-Caspase-9 cells were plated out into 96-well plates [200 μl/well at 1×10^6 cells/mL in cultured complete medium (DMEM+10% FBS+0.5 mg/mL Geneticin (Invitrogen)] and left overnight at 37° C. to recover. Compounds were added to duplicate wells in 0.1% DMSO for 2 h at 37° C. Cells were lysed in 50 μl 1×MSD lysis buffer (1% Triton X-100 in 20 mM Tris·Cl (pH 7.6), 150 mM NaCl including protease inhibitors) for 20 min rocking at room temperature. Streptavidin high bind MSD plate (L15SB-2) were coated with biotinylated anti-FLAG M2 antibody (Sigma F9291) at 25 μl/well with a 5 μg/mL dilution of antibody in PBS for 1 h, shaking; followed by blocking for 1 h with 150 μl 3% BSA/TBST. Cell lysate (25 μl) was added to the 96-well anti-FLAG coated MSD plate and placed on shaker for 4 h at room temperature. […] Plates were washed 4 times with 150 μl TBST, and 150 μl/well 1×MSD read buffer (R92TC-2) added before reading each plate.
EC50 values were determined from dose-response plots using nonlinear least-squares analysis.

The test system of data set [3] is MDA-MB-231 (human breast carcinoma). In words: Anti-proliferative activity, Alamar Blue assay, MDA-MB-231. Format: cell-based. The conditions noted are these: proliferation, 72 hours compound. As to the method: as §1, §2
The target of a further data set is T2, hERG ion channel (Homo sapiens, UniProt Q12809).
T2 construct: expressed in transfected cells; host or cells: CHO K1
Description: Population Patch Clamp (PPC) hERG assay in CHO K1 cells. Format: cell-based. The protocol:
Inhibition of the hERG channel was measured by automated patch clamp assay in CHO K1 cells, stably transfected with the hERG ion channel. PPC measurements were performed using an IonWorks Quattro instrument (Molecular Devices Corporation, Union City, CA) using a 384 well PatchPlate (Molecular Devices Corporation) with 64 apertures per well. Each concentration of test compound was tested in duplicate wells. Amphotericin B was used to obtain electrical access to the cell interior at a final concentration of 200 μg/mL. Human ether-à-gogo related gene (hERG) currents were measured with a prepulse to +40 mV (2 s) from the holding potential of −80 mV, followed by a step to −50 mV (2 s) to elicit the deactivating tail currents, before returning to the holding potential for 1s. Compounds were incubated for 600s between the pre- and post-compound reads. The external recording solution used was 130 mM Na Gluconate, 20 mM NaCl, 4 mM KCl, 1 mM MgCl2, 1.8 mM CaCl2, 10 mM Hepes, 5 mM Glucose, pH to 7.3 with NaOH. All data were filtered for seal quality, seal drop, and current amplitude. The maximum current amplitude of the 3rd pulse tail current was calculated before (Pre) and after (Post) compound addition and the amount of block assessed by dividing the Post-compound current amplitude by the Pre-compound current amplitude.
In general terms: The patch-clamp technique gives a direct electrical read-out from membranes.

In data set [4] the test system is A375. In words: Combination protocol for apoptosis, A375. It counts as cell-based, human. The conditions noted are these: for % Apoptosis Combination / % Apoptosis Example 2 alone*: 24 h. As to the method:
(§3) Melanoma cell lines were plated out in duplicate wells of 24-well plates at 0.5×10^6 cells/ml the day before treatment to allow them to adhere. After incubation of the cells with compound(s) with or without 1 ng/ml TNF-α (R&D Systems) for 24 h in a CO2 incubator at 37° C., cells were harvested by trypsinisation. The cell pellet from the 24-well plate was resuspended in 100 μl FACS buffer (PBS+1% fetal bovine serum). NucView488 reagent (from Biotium) was added to a final concentration of 2 μM. The plate was incubated in the dark for 30 minutes before measuring fluorescent stained cells in a Guava easyCyte HT cytometer (Millipore). Cleaved caspase-3 staining was recorded in the FL1 channel, with unstained and DMSO control wells being used to set the gated stained and unstained cell populations.
No increase in apoptosis was seen over this time scale with the combination agent shown in the first column of the table alone (with or without TNF-α)—data not shown.

Data set [5] concerns SK-MEL-28. In words: Apoptosis induction (cleaved caspase-3 cytometry), SK-MEL-28. The note with it: 1 μM Example 2 plus 1 ng/ml TNF-α, 24 hour. It counts as cell-based, human. The protocol: as §3
The test system of the next data set is SK-MEL-5. Description: Apoptosis induction (cleaved caspase-3 cytometry), SK-MEL-5. Format: cell-based, human. The conditions noted are these: 1 μM Example 2 plus 1 ng/ml TNF-α, 24 hour. The protocol: as §3
The test system of the next data set is SK-MEL-2. In words: Apoptosis induction (cleaved caspase-3 cytometry), SK-MEL-2. Format: cell-based, human. The note with it: 1 μM Example 2 plus 1 ng/ml TNF-α, 24 hour. The protocol:
as §3

The next data set has as its system RPMI-7951. In words: Apoptosis induction (cleaved caspase-3 cytometry), RPMI-7951. Format: cell-based, human. The note with it: 1 μM Example 2 plus 1 ng/ml TNF-α, 24 hour. As to the method: as §3
The test system of a further data set is MALME-3M. Description: Apoptosis induction (cleaved caspase-3 cytometry), MALME-3M. Format: cell-based, human. The conditions noted are these: 1 μM Example 2 plus 1 ng/ml TNF-α, 24 hour. The protocol: as §3
The subject of data set [6] is A375. Description: Apoptosis induction (cleaved caspase-3 cytometry), A375. It counts as cell-based, human. The note with it: 1 μM Example 2 plus 1 ng/ml TNF-α, 24 hour. The protocol: as §3
The subject of a further data set is WM-115. In words: Apoptosis induction (cleaved caspase-3 cytometry), WM-115. Format: cell-based, human. The note with it: 1 μM Example 2 plus 1 ng/ml TNF-α, 24 hour, dihydrochloride. The protocol: as §3
The next data set has as its system WM-266-4. Description: Apoptosis induction (cleaved caspase-3 cytometry), WM-266-4. Format: cell-based, human. The note with it: 1 μM Example 2 plus 1 ng/ml TNF-α, 24 hour, dihydrochloride. As to the method:
as §3

Data set [7] relates to SK-MEL-28. Description: Combination protocol for apoptosis, SK-MEL-28. It counts as cell-based, human. As to the method: as §3, with “After” for “Melanoma cell lines were plated out in duplicate wells of 24-well plates at 0.5×10^6 cells/ml the day before treatment to allow them to adhere. After”

T1 sequence (P98170 whole entry): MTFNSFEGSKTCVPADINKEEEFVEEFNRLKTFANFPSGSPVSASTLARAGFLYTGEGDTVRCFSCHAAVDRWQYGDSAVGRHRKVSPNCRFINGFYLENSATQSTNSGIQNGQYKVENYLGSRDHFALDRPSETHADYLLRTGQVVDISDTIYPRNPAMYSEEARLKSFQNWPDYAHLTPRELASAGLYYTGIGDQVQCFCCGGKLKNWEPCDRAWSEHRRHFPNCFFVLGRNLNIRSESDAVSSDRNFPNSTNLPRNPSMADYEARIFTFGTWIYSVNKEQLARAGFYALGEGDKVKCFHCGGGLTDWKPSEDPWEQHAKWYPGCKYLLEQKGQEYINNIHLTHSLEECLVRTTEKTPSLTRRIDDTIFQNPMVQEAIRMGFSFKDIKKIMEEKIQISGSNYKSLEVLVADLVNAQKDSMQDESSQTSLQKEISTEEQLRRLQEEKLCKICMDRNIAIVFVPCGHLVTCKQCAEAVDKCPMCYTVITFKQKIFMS
T2 sequence (Q12809 whole entry): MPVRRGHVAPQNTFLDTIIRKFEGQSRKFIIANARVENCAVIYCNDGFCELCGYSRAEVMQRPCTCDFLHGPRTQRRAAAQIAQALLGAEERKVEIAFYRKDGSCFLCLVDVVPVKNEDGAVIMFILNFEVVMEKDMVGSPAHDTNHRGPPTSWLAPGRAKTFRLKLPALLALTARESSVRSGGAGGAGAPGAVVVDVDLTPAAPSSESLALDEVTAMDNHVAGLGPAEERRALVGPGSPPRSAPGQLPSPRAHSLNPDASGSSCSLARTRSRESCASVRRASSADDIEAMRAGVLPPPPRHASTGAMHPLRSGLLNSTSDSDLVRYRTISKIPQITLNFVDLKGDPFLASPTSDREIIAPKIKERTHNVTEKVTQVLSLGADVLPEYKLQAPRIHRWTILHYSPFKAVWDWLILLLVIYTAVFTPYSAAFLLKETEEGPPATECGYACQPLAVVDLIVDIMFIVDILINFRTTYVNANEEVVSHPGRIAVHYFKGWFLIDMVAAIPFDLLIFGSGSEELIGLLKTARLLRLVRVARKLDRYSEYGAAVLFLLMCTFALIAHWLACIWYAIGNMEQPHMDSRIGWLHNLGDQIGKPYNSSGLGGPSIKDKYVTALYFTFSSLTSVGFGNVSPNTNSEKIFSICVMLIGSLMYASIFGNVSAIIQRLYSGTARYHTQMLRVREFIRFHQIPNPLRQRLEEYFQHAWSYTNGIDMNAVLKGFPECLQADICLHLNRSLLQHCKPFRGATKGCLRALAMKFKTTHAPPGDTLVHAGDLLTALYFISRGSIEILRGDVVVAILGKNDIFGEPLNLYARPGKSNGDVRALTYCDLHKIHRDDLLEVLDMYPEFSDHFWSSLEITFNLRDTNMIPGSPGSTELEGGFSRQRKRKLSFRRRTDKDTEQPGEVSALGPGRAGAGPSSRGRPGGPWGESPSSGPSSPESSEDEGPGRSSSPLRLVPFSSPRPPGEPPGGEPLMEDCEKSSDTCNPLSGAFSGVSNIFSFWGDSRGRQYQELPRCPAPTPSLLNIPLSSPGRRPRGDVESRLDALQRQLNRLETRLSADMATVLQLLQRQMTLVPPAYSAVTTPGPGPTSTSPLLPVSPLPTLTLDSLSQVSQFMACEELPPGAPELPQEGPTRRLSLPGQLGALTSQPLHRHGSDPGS

Turning to `CCCCc1cc2c([nH]c1=O)C(C)(C)CN2C(=O)CN1C[C@@H](C)NC[C@@H]1CN1C[C@H](C)OC[C@H]1C` [Example 37, 6-Butyl-1-{2-[(2R,5R)-2-{[(2S,5R)-2,5-dimethylmorpholin-4-yl]methyl}-5-methylpiperazin-1-yl]acetyl}-3,3-dimethyl-1H,2H,3H,4H,5H-pyrrolo[3,2-b]pyridin-5-one dihydrochloride], the EC50 in [1] (Homo sapiens, EVSA-T, 72 h) came out at 3.2 nM; in data set [2], 7.4 nM; in data set [3] (Homo sapiens, MDA-MB-231, 72 h), 18 nM. Besides, on hERG ion channel (@ 500 μM), the “hERG PPC (PI)” value was found to be 63% @ 500.
For the compound `CCCCn1cc2c(cc1=O)C(C)(C)CN2C(=O)CN1C[C@@H](C)NC[C@@H]1CN1[C@H](C)COC[C@H]1C` [Example 35, 6-Butyl-1-{2-[(2R,5R)-2-{[(3R,5R)-3,5-dimethylmorpholin-4-yl]methyl}-5-methylpiperazin-1-yl]acetyl}-3,3-dimethyl-1H,2H,3H,5H,6H-pyrrolo[2,3-c]pyridin-5-one dihydrochloride], the EC50 turned out to be 16 nM in data set [1] (Homo sapiens, EVSA-T, 72 h); 13 nM in data set [2]; 130 nM in [3] (Homo sapiens, MDA-MB-231, 72 h). Moreover, at hERG ion channel (@ 1000 μM), the “hERG PPC (PI)” value stood at 53% @ 1000.
`CC(=O)Nc1cccc(-n2c(=O)n(C3CC3)c(=O)c3c(Nc4ccc(I)cc4F)n(C)c(=O)c(C)c32)c1` [Trametinib]: the “% Apoptosis Combination” value in the data set with A375 [4] (agent 0.1 μM with Example 2 0.1 μM + 1 ng/ml TNF-α) is given as 52.3%. Moreover, in the data set with A375 [4] (combination (agent 0.1 μM) relative to Example 2 0.1 μM + TNF-α alone), the “Fold Increase” value is given as 3.6.
Turning to `C[C@@H]1CN(CC(=O)N2CC(C)(C)c3nc(CO)c(Cc4ccc(F)cc4)cc32)[C@@H](CN2CCOC[C@H]2C)CN1` [Example 2, 1-{6-[(4-Fluorophenyl)methyl]-5-(hydroxymethyl)-3,3-dimethyl-1H,2H,3H-pyrrolo[3,2-b]pyridin-1-yl}-2-[(2R,5R)-5-methyl-2-{[(3R)-3-methylmorpholin-4-yl]methyl}piperazin-1-yl] ethan-1-one dihydrochloride], the “% Cleaved Caspase-3” value was determined as 63.2% in the data set on SK-MEL-28 [5]; 52.8% in the data set on SK-MEL-5; 49.5% in the data set on SK-MEL-2; 44.0% in the data set on RPMI-7951; 29.5% in the data set with MALME-3M; 26.5% with A375 [6]. The “% Cleaved Caspase-3” value in the data set on WM-115 was found to be 16.7%; with WM-266-4 it was 13.2%. Also, the “% Apoptosis Example 2 alone*” value in the data set with SK-MEL-28 [7] (Example 2 0.1 μM + 1 ng/ml TNF-α, 24 h) is 42.2 (0.1 μM) %; in the data set on A375 [4] (Example 2 0.1 μM + 1 ng/ml TNF-α), 14.4 (0.1 μM) %; in the data set on A375 [4] (Example 2 1 μM + 1 ng/ml TNF-α), 31.2 (1 μM) %.
As to `CCCS(=O)(=O)Nc1ccc(F)c(C(=O)c2c[nH]c3ncc(-c4ccc(Cl)cc4)cc23)c1F` [Vemurafenib, reference compound], the “% Apoptosis Combination” value in the data set on SK-MEL-28 [7] (agent 1 μM with Example 2 1 μM + 1 ng/ml TNF-α, 24 h) is given as 87.3%; in the data set on A375 [4] (agent 4 μM with Example 2 1 μM + 1 ng/ml TNF-α), 61.3%. In addition, the figures for the “Fold Increase” value in the data set on SK-MEL-28 [7] (combination (agent 1 μM) relative to Example 2 1 μM + TNF-α alone) and in the data set on A375 [4] (combination (agent 4 μM) relative to Example 2 1 μM + TNF-α alone) were 1.7 and 2.0, respectively.
For `COC(CO)c1nc2c(cc1Cc1ccc(F)cc1)N(C(=O)CN1C[C@@H](C)NC[C@@H]1CN1[C@H](C)COC[C@H]1C)CC2(C)C` (single isomer, unassigned) [Example 36, 2-[(2R,5R)-2-{[(3R,5R)-3,5-Dimethylmorpholin-4-yl]methyl}-5-methylpiperazin-1-yl]-1-{6-[(4-fluorophenyl)methyl]-5-((R or S)-2-hydroxy-1-methoxyethyl)-3,3-dimethyl-1H,2H,3H-pyrrolo[3,2-b]pyridin-1-yl}ethan-1-one], the EC50 in data set [1] was 0.48 nM; in data set [1] (Homo sapiens, EVSA-T, 72 h) it was 0.38 nM; in [2], 2.6 nM and 4.2 nM; in data set [3] (Homo sapiens, MDA-MB-231, 72 h), 2.5 nM; in data set [3], 2.7 nM. The compound also showed an IC50 against hERG ion channel (CHO K1 cells stably transfected with hERG) of 420000 nM.
